Measurements from PMC8287724, “Reducing Auditory Nerve Excitability by Acute Antagonism of Ca^2+-Permeable AMPA Receptors” (Frontiers in Synaptic Neuroscience, 2021).

What was measured:
[1] = system: ANF postsynaptic terminals; parameters: method as in Puel et al., 1994; details: chemical lesion, basal cochlear turn perfusion ref Puel et al., 1994; cited from earlier work
[2] = system: ribbon synapses and ANF dendrites in the inner spiral plexus; assay: Apical cochlear perfusion of kainic acid, immunohistofluorescence and confocal microscopy; assay type: in vivo, guinea pig; details: 2 mM in artificial perilymph, apical perfusion of scala tympani
Experimental: Following cardiac perfusion of 4% PFA in 0.1 M phosphate buffer and cervical dislocation, the temporal bone was immediately harvested, and the cochlea was isolated. Each cochlea was post-fixed for 20 min at 4°C in a dish with 4% PFA, where a small fenestration was made in the round window, oval window, and the apex of each cochlea to gently flush with 1 mL of fixative. Each cochlea was then decalcified in 10% EDTA at room temperature for 6 h, exchanging EDTA every 2 h. The decalcified outer bone was removed to reveal the underlying cochlear spiral. Small pieces of cochlear turns were placed in buffer overnight at 4°C in Triton X-100 with donkey serum. […]
The method of apical intracochlear drug delivery has previously been well-detailed (Lichtenhan et al., [2016a]). […] Response waveforms were recorded immediately prior to apical drug perfusion to establish a baseline, throughout perfusion which took 6 min, and then immediately after perfusion, from a round window electrode. […]

[3] = system: cochlear afferent synapses; parameters: method as in earlier work; details: ref Robertson, 1983; Puel et al., 1998; Furman et al., 2013; Hickman et al., 2020; cited from earlier work

NC(CCCP(=O)(O)O)C(=O)O [D-AP5]
effect of pre-perfusion on ANF terminal swelling [1]: not

O=c1[nH]c2cc([N+](=O)[O-])c([N+](=O)[O-])cc2[nH]c1=O [DNQX]
effect of pre-perfusion on ANF terminal swelling [1]: prevented

C=C(C)[C@H]1CN[C@H](C(=O)O)[C@H]1CC(=O)O [KA, kainic acid]
effect on innervation and ribbon synapses [2]: void of innervation in the ISP and ribbon synapse disintegration

O=C(O)c1cc(=O)c2ccccc2[nH]1 [kynurenic acid]
effect on synapse loss and osmotic damage after synaptopathic noise exposure [3]: blocked
